The supplement of paper PMC4862054

Assays:
Test in all cases: normalised viability (% of control), CellTiter-Blue; higher = more viable cells (about 100 = DMSO control)
Details in all cases: incubation time: 72 h
[1] = tested on: HCC1143
Outline: (§1)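 384-well plates were pre-loaded with compound in 5 µl medium before 20 µl of breast cancer cell suspension was seeded. Following 72 h incubation, 2.5 µl CellTiter-Blue reagent was added for 2 h at 37 °C. Fluorescence was read at 560/590 nm and plates were normalised to vehicle (100) and a positive kill control (0), checked by Z'-factor. Normalised viability is reported at a single listed concentration of the series.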

[2] = tested on: CAL-148
Outline: as §1

[3] = tested on: MDA-MB-231
Outline: as §1

[4] = tested on: CAL-51
Outline: as §1

[5] = tested on: CAL-85-1
Outline: as §1

[6] = tested on: Hs578T
Outline: as §1

[7] = tested on: HCC1599
Outline: as §1

[8] = tested on: MFM-223
Outline: as §1

[9] = tested on: HDQ-P1
Outline: as §1

[10] = tested on: DU-4475
Outline: as §1

[11] = tested on: BT-549
Outline: as §1

[12] = tested on: CAL-120
Outline: as §1

[13] = tested on: SK-BR-3
Outline: as §1

[14] = tested on: BT-474
Outline: as §1

[15] = tested on: MDA-MB-453
Outline: as §1

[16] = tested on: HCC1937
Outline: as §1

[17] = tested on: MDA-MB-436
Outline: as §1

O=NN(CCCl)C(=O)NCCCl [Carmustine]
normalised viability [%]
Details | 3 nM | 10 nM | 30 nM | 100 nM | 1000 nM | 10000 nM
[1] | – | 87.2 | – | – | 85.4 | 86.6
[2] | 94.5 | – | 96.7 | 97.5 | – | –
[3] | – | 103 | – | – | 99.1 | 117
[4] | 108 | – | 107 | 99.4 | – | –
[5] | 95.1 | – | 88.9 | 96.6 | – | –
[6] | – | 114 | – | – | 95.3 | 115
[7] | – | 99 | – | – | 83.5 | 84.2
[8] | – | 93.1 | – | – | 94.6 | 103
[9] | 120 | – | 128 | 108 | – | –
[10] | 85.3 | – | 83.5 | 93 | – | –
[11] | – | 88.2 | – | – | 89.9 | 103
[12] | – | 98.9 | – | – | 83 | 82.5
[13] | – | 100 | – | – | 123 | 96.9
[14] | – | 124 | – | – | 98.8 | 125
[15] | 109 | – | 105 | 110 | – | –
[16] | – | 95 | – | – | 93 | 71.5
[17] | – | 91.8 | – | – | 105 | 87.5

COc1cc(F)c(F)c(Nc2ccc(I)cc2F)c1NS(=O)(=O)C1(C[C@H](O)CO)CC1 [RDEA119]
normalised viability [%]
Details | 3 nM | 10 nM | 30 nM | 100 nM | 1000 nM | 10000 nM
[1] | – | 117 | – | – | 62.8 | 61.7
[2] | 91.9 | – | 80.7 | 80 | – | –
[3] | – | 73.7 | – | – | 28.7 | 29.3
[4] | 97 | – | 84.5 | 81.2 | – | –
[5] | 95.2 | – | 98.8 | 97.3 | – | –
[6] | – | 103 | – | – | 69.7 | 54.5
[7] | – | 92.5 | – | – | 78.6 | 82
[8] | – | 94.8 | – | – | 75.7 | 54.7
[9] | 81.5 | – | 88 | 110 | – | –
[10] | 91.4 | – | 61.2 | 28.2 | – | –
[11] | – | 98.7 | – | – | 87.5 | 66.4
[12] | – | 103 | – | – | 64.5 | 47.3
[13] | – | 110 | – | – | 81.8 | 100
[14] | – | 108 | – | – | 103 | 110
[15] | 87.9 | – | 95.5 | 98.7 | – | –
[16] | – | 102 | – | – | 72.4 | 62.8
[17] | – | 93.3 | – | – | 103 | 84.6

Oc1ncnc2[nH]ncc12 [Allopurinol]
normalised viability [%]
Details | 3 nM | 10 nM | 30 nM | 100 nM | 1000 nM | 10000 nM
[1] | – | 119 | – | – | 123 | 108
[2] | 113 | – | 121 | 120 | – | –
[3] | – | 91.8 | – | – | 93.9 | 107
[4] | 98.2 | – | 91.9 | 94.8 | – | –
[5] | 109 | – | 98 | 106 | – | –
[6] | – | 108 | – | – | 120 | 106
[7] | – | 87.1 | – | – | 77.3 | 90.1
[8] | – | 95.3 | – | – | 110 | 105
[9] | 95.9 | – | 93.1 | 91.8 | – | –
[10] | 104 | – | 92.1 | 97 | – | –
[11] | – | 105 | – | – | 86.6 | 99.1
[12] | – | 120 | – | – | 109 | 108
[13] | – | 100 | – | – | 103 | 105
[14] | – | 114 | – | – | 116 | 102
[15] | 115 | – | 105 | 105 | – | –
[16] | – | 87.2 | – | – | 79.2 | 96.2
[17] | – | 100 | – | – | 101 | 93.4
